How the values were obtained:
[1] = test system: skin colour of human panelists' face; assay: Efficacy on skin-lightening, half-face cleanser use versus placebo cleanser; type: in vivo
From the text: Thirty three human panelists are recruited who are required to use a known amount of the cleansing product on one half of their face. At the same time, the other half was rinsed with a placebo cleanser. Panelists were required to do this for eight weeks. The color of the skin is monitored at regular intervals by trained visual graders and instruments. A final assessment is made at eight weeks. The value for skin-lightening indicated is in comparison to the placebo effect.

human skin = assay: Skin delivery of resorcinol from product applied to human volunteer forearms; type: in vivo; details: for Skin Delivery of ER: 2.5% ER, pH 6.5, percentage of initial dose after rinse
Protocol: Delivery of resorcinol on human skin was assessed through direct application of product to human volunteer forearms. A known dose of the product was applied to the area, and the product was rubbed into the area. The area on the arm was rinsed with a fixed amount of water. The collected rinse liquor was analyzed for resorcinol, and the amount delivered to skin was calculated by subtracting from the dosage applied. This is expressed as a percentage of the initial dose.

[2] = Product stability by visual assessment of color and homogeneity after storage; type: physicochemical; details: for Color Stability of ER / Color Stability / Homogeneity: 2.5% ER; for Color Stability / Homogeneity: 3 months at ~25° C., visual
Protocol: Stability of product is evaluated after a storage period of 3 months at ˜25° C. by visual measurement to assess color and homogeneity of product.

[3] = liquid cleanser with 7% neutralised fatty acid (C18/C14/C12 mix), pH 9.2
[4] = liquid cleanser with 7% sodium lauryl sulphate, pH 6.5

delivery of 4 ethyl resorcinol from the formulation on the skin (human skin; anionic and amphoteric surfactant, or in combination with a nonionic surfactant): significant delivery
Skin Delivery of ER (human skin; cleanser with SLES (3EO) 4.5%, coca amido propyl betaine 1.47%, decyl polyglucoside 1.5%): 12.4%
Skin Delivery of ER (human skin; cleanser with SLES (3EO) 6.8%, coca amido propyl betaine 2.2%): 7.7%
Color Stability of ER ([2]; cleanser with SLES (3EO) 4.5%, coca amido propyl betaine 1.47%, decyl polyglucoside (HLB 13-15) 1.5%, pH 6.5): Good
Color Stability of ER ([2]; cleanser with SLES (3EO) 6.8%, coca amido propyl betaine 2.2%, pH 6.5): Good
Color Stability [2, 3]: Dark brown
Homogeneity [2, 3]: Small precipitate
Color Stability [2, 4]: Good
Homogeneity [2, 4]: Good
stability of 4 ethyl resorcinol in the formulation ([2]; pH of the formulation below 7.5): good
Structure (SMILES): CCc1ccc(O)cc1O [4 ethyl resorcinol]
Efficacy on skin-lightening ([1]; cleanser with SLES (3EO) 6.8%, coca amido propyl betaine 2.2%, 2.5% ER, pH 6.5, eight weeks, in comparison to placebo effect): −0.7
skin colour (lightening) ([1]; through a cleansing system with anionic and amphoteric surfactant): significantly improves skin colour
